Laboratory results taken from paper PMC4818699 (Angewandte Chemie (International ed. in English), 2016).

System: MoeN5 (MoeN5-CS) (Streptomyces viridosporus)
Test: X-ray crystal structure of the complex
Assay type: binding
Details: allylic site S1, near Asp-rich motifs; also PDB 5B03

MoeN5 (MoeN5-CS) (Streptomyces viridosporus), sequence (A0A010 1-260): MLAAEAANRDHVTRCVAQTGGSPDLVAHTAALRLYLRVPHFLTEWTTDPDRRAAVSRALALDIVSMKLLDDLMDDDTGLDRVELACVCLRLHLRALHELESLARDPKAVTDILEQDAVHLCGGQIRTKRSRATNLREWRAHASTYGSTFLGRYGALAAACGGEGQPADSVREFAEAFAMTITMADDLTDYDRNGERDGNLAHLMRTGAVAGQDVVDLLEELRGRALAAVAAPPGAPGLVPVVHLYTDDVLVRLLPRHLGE

With `CC(C)=CCC/C(C)=C/COP(=O)(O)OP(=O)(O)O` [compound 6, geranyl diphosphate] the “X-ray crystal structure of the complex” value was “GPP binds to MoeN5-CS close to the Asp-rich domains”.
